What was measured:
dengue virus type 2 = assay: Functional assay to measure dose dependent changes in antiviral-drug inhibitory efficacy against Dengue virus type 2 New Guinea C in Vero E6 miRFP670 cells (cotreated with P-gp inhibitor, CP100356). Cells are treated with antiviral candidates that are serially diluted, following infection, cells are fixed. EC50 is reported via analysis of fluorescence intensity using high-content imager. The …; type: organism-based, Chlorocebus sabaeus, Vero C1008; conditions: for EC90: P-gp concentration 500 nM, P-gp inhibitor CP100356
Zika virus = assay: Functional CPE-based assay to measure dose dependent changes in antiviral-drug inhibitory efficacy against Zika virus MR766 in Vero E6 miRFP670 cells (cotreated with P-gp inhibitor, CP100356). Cells are treated with antiviral candidates that are serially diluted. EC50 is reported via analysis of MTS assay as a readout of CPE. The assay has been performed by KU Leuven.; type: organism-based, Chlorocebus sabaeus, Vero C1008; conditions: for EC90: P-gp concentration 500 nM, P-gp inhibitor CP100356

Cn1c(=O)[nH]c2c(C(=O)Nc3ccc4c(c3)CNC4)cc(Br)cc21
EC50 (dengue virus type 2; Dengue virus, Vero C1008): > 50 µM | EC90 (dengue virus type 2; Dengue virus, Vero C1008, Baseline response 0 %, Hill slope -2.293, Maximum measured 105.522 %, Maximum response 100 %, Minimum measured 55.095 %, R squared 0.397): > 50 µM | EC50 (Zika virus; Zika virus, Vero C1008): 0.724 µM | EC90 (Zika virus; Zika virus, Vero C1008, Baseline response 0 %, EC90 CI (lower) 0.762 uM, EC90 CI (upper) 6.925 uM, Hill slope 1.902, Maximum measured 109.696 %, Maximum response 100 %, Minimum measured 27.933 %, R squared 0.521): 2.3 µM

Cn1cc2c(C(=O)Nc3ccc4c(c3)CNC4)cc(F)cc2n1
EC50 (dengue virus type 2; Dengue virus, Vero C1008): > 50 µM | EC90 (dengue virus type 2; Dengue virus, Vero C1008, Baseline response 0 %, Hill slope 0.83, Maximum measured 109.464 %, Maximum response 100 %, Minimum measured 93.167 %, R squared 0.272): > 50 µM | EC50 (Zika virus; Zika virus, Vero C1008): 3.02 µM | EC90 (Zika virus; Zika virus, Vero C1008, Baseline response 0 %, EC90 CI (lower) 4.41 uM, EC90 CI (upper) 19.306 uM, Hill slope 1.966, Maximum measured 124.261 %, Maximum response 100 %, Minimum measured 18.013 %, R squared 0.888): 9.23 µM

O=C(Nc1ccc2c(c1)CNC2)c1cc(Cl)cc2ccccc12
EC50 (dengue virus type 2; Dengue virus, Vero C1008): > 50 µM | EC90 (dengue virus type 2; Dengue virus, Vero C1008, Baseline response 0 %, Hill slope 0.531, Maximum measured 139.444 %, Maximum response 100 %, Minimum measured 57.429 %, R squared 0.178): > 50 µM | EC50 (Zika virus; Zika virus, Vero C1008): > 50 µM | EC90 (Zika virus; Zika virus, Vero C1008, Baseline response 0 %, Hill slope -0.363, Maximum measured 9.094 %, Maximum response 100 %, Minimum measured -16.765 %, R squared 0.057): > 50 µM

N#Cc1cccc(-c2nc3c(C(=O)Nc4ccc5c(c4)CNC5)cc(F)cc3[nH]2)c1
EC50 (dengue virus type 2; Dengue virus, Vero C1008): > 6.25 µM | EC90 (dengue virus type 2; Dengue virus, Vero C1008, Baseline response 0 %, Hill slope 1.695, Maximum measured 158.102 %, Maximum response 100 %, Minimum measured 53.067 %, R squared 0.44): > 6.25 µM | EC50 (Zika virus; Zika virus, Vero C1008): > 50 µM | EC90 (Zika virus; Zika virus, Vero C1008, Baseline response 0 %, Hill slope 0.393, Maximum measured 36.291 %, Maximum response 100 %, Minimum measured 0.187 %, R squared 0.325): > 50 µM

Cc1cccc(-c2nc3c(C(=O)Nc4ccc5c(c4)CNC5)cc(Cl)cc3[nH]2)c1O
EC50 (dengue virus type 2; Dengue virus, Vero C1008): 46.9 µM | EC90 (dengue virus type 2; Dengue virus, Vero C1008, Maximum measured 146.036 %, Minimum measured 86.561 %): > 50 µM | EC90 (dengue virus type 2; Dengue virus, Vero C1008, Baseline response 0 %, Hill slope -5.285, Maximum measured 123.385 %, Maximum response 100 %, Minimum measured 41.68 %, R squared 0.576): > 50 µM | EC50 (dengue virus type 2; vero c1008): > 50 µM | EC50 (Zika virus; Zika virus, Vero C1008): > 50 µM | EC90 (Zika virus; Zika virus, Vero C1008, Maximum measured 4.83 %, Minimum measured -9.413 %): > 50 µM | EC90 (Zika virus; Zika virus, Vero C1008, Baseline response 0 %, Hill slope 1.997, Maximum measured 9.723 %, Maximum response 100 %, Minimum measured -5.385 %, R squared 0.475): > 50 µM

CCOCCNC(=O)[C@H](Nc1ccc2c(c1)CNC2)c1cc(Cl)cc2[nH]ncc12
EC50 (dengue virus type 2; Dengue virus, Vero C1008): > 50 µM | EC90 (dengue virus type 2; Dengue virus, Vero C1008, Maximum measured 134.278 %, Minimum measured 95.519 %): > 50 µM | EC50 (Zika virus; Zika virus, Vero C1008): 39.6 µM | EC90 (Zika virus; Zika virus, Vero C1008, Baseline response 0 %, Hill slope 1.597, Maximum measured 58.987 %, Maximum response 100 %, Minimum measured -2.742 %, R squared 0.989): > 50 µM

O=C(Nc1cc2c(cc1C1CC1)CNC2)c1cc(F)cc2[nH]ncc12
EC50 (dengue virus type 2; Dengue virus, Vero C1008): > 3.12 µM | EC90 (dengue virus type 2; Dengue virus, Vero C1008, Maximum measured 158.599 %, Minimum measured 73.357 %): > 3.12 µM | EC50 (Zika virus; Zika virus, Vero C1008): 7.12 µM | EC90 (Zika virus; Zika virus, Vero C1008, Baseline response 0 %, EC90 CI (lower) 6.176 uM, EC90 CI (upper) 30.178 uM, Hill slope 3.376, Maximum measured 139.956 %, Maximum response 100 %, Minimum measured 0.398 %, R squared 0.839): 13.7 µM

O=C(Nc1ccc2c(c1)CNC2)c1cc(F)cc2[nH]c(-c3cnc(C4CC4)o3)nc12
EC90 (dengue virus type 2; Baseline response 0 %, EC90 CI (lower) 0.872 uM, EC90 CI (upper) 3.596 uM, Hill slope -8.389, Maximum measured 102.302 %, Maximum response 100 %, Minimum measured 7.049 %, R squared 0.894): 2.99 µM | EC50 (dengue virus type 2; Dengue virus, Vero C1008): 2.33 µM | EC90 (dengue virus type 2; Dengue virus, Vero C1008, Baseline response 0 %, EC90 CI (lower) 0.484 uM, EC90 CI (upper) 7.419 uM, Hill slope -10.584, Maximum measured 98.644 %, Maximum response 100 %, Minimum measured 4.286 %, R squared 0.843): 2.87 µM | EC50 (dengue virus type 2; vero c1008): 2.3 µM | EC90 (Zika virus; Baseline response 0 %, Hill slope 1.364, Maximum measured 18.791 %, Maximum response 100 %, Minimum measured -1.808 %, R squared 0.107): > 50 µM | EC50 (Zika virus; Zika virus, Vero C1008): > 50 µM | EC90 (Zika virus; Zika virus, Vero C1008, Baseline response 0 %, Hill slope 2.704, Maximum measured 11.553 %, Maximum response 100 %, Minimum measured -5.923 %, R squared 0.137): > 50 µM

O=C(Nc1ccc2c(c1)CNC2)c1cccc2[nH]c(C(F)(F)F)cc12
EC50 (dengue virus type 2; Dengue virus, Vero C1008): 11.6 µM | EC90 (dengue virus type 2; Dengue virus, Vero C1008, Baseline response 0 %, Hill slope -1.333, Maximum measured 97.959 %, Maximum response 100 %, Minimum measured 43.335 %, R squared 0.826): > 12.5 µM | EC50 (Zika virus; Zika virus, Vero C1008): 0.857 µM | EC90 (Zika virus; Zika virus, Vero C1008, Baseline response 0 %, EC90 CI (lower) 0.735 uM, EC90 CI (upper) 5.08 uM, Hill slope 2.705, Maximum measured 139.12 %, Maximum response 100 %, Minimum measured 13.658 %, R squared 0.773): 1.93 µM

O=C(Nc1ccc2c(c1)CNC2)c1cc(Cl)cc2cc[nH]c12
EC50 (dengue virus type 2; Dengue virus, Vero C1008): 2.21 µM | EC90 (dengue virus type 2; Dengue virus, Vero C1008, Baseline response 0 %, Hill slope -2.776, Maximum measured 94.432 %, Maximum response 100 %, Minimum measured 26.957 %, R squared 0.875): > 3.12 µM | EC50 (Zika virus; Zika virus, Vero C1008): 1 µM | EC90 (Zika virus; Zika virus, Vero C1008, Baseline response 0 %, EC90 CI (lower) 0.797 uM, EC90 CI (upper) 4.564 uM, Hill slope 3.408, Maximum measured 129.449 %, Maximum response 100 %, Minimum measured 8.447 %, R squared 0.85): 1.91 µM

O=C(Nc1ccc2c(c1)CNC2)c1cc(F)cc(-c2cccnc2)c1
EC50 (dengue virus type 2; Dengue virus, Vero C1008): 0.651 µM | EC90 (dengue virus type 2; Dengue virus, Vero C1008, Baseline response 0 %, Hill slope -0.704, Maximum measured 60.172 %, Maximum response 100 %, Minimum measured 15.025 %, R squared 0.92): > 12.5 µM | EC50 (Zika virus; Zika virus, Vero C1008): 6.3 µM | EC90 (Zika virus; Zika virus, Vero C1008, Baseline response 0 %, Hill slope 23.488, Maximum measured 123.724 %, Maximum response 100 %, Minimum measured 1.449 %, R squared 0.923): 6.91 µM

NCc1csc2cc(C(=O)Nc3ccc4c(c3)CNC4)ccc12
EC50 (dengue virus type 2; Dengue virus, Vero C1008): > 50 µM | EC90 (dengue virus type 2; Dengue virus, Vero C1008, Maximum measured 124.572 %, Minimum measured 93.265 %): > 50 µM | EC50 (Zika virus; Zika virus, Vero C1008): > 50 µM | EC90 (Zika virus; Zika virus, Vero C1008, Baseline response 0 %, Hill slope 0.999, Maximum measured 5.799 %, Maximum response 100 %, Minimum measured -1.302 %, R squared 0.306): > 50 µM

O=C(Nc1ccc2c(c1)CNC2)c1cc(F)cc2[nH]c(-c3cccc(F)c3)nc12
EC50 (dengue virus type 2; Dengue virus, Vero C1008): > 1.56 µM | EC90 (dengue virus type 2; Dengue virus, Vero C1008, Baseline response 0 %, Hill slope -0.435, Maximum measured 206.615 %, Maximum response 236.845 %, Minimum measured 186.851 %, R squared 0.182): > 1.56 µM | EC50 (Zika virus; Zika virus, Vero C1008): > 50 µM | EC90 (Zika virus; Zika virus, Vero C1008, Baseline response 0 %, Hill slope 2.278, Maximum measured 12.458 %, Maximum response 100 %, Minimum measured -7.568 %, R squared 0.376): > 50 µM

O=C(Nc1ccc2c(c1)CNC2)c1cc(Cl)cc2[nH]c(-c3ccnn3C3CC3)nc12
EC50 (dengue virus type 2; Dengue virus, Vero C1008): > 6.25 µM | EC90 (dengue virus type 2; Dengue virus, Vero C1008, Baseline response 0 %, Hill slope 11.741, Maximum measured 109.967 %, Maximum response 100 %, Minimum measured 87.357 %, R squared 0.219): > 6.25 µM | EC50 (Zika virus; Zika virus, Vero C1008): > 0.781 µM | EC90 (Zika virus; Zika virus, Vero C1008, Baseline response 0 %, Hill slope 2.383, Maximum measured 38.126 %, Maximum response 100 %, Minimum measured 10.566 %, R squared 0.88): > 0.781 µM

O=C(Nc1ccc2c(c1)CNC2)c1cc(Cl)cc2c1cnn2C1CCC1
EC50 (dengue virus type 2; Dengue virus, Vero C1008): > 6.25 µM | EC90 (dengue virus type 2; Dengue virus, Vero C1008, Maximum measured 167.025 %, Minimum measured 94.774 %): > 6.25 µM | EC50 (Zika virus; Zika virus, Vero C1008): 1.26 µM | EC90 (Zika virus; Zika virus, Vero C1008, Baseline response 0 %, EC90 CI (lower) 1.13 uM, EC90 CI (upper) 4.462 uM, Hill slope 3.792, Maximum measured 124.257 %, Maximum response 100 %, Minimum measured 13.491 %, R squared 0.856): 2.25 µM

O=C(Nc1cc2c(c(-c3ccnnc3)c1)CNC2)c1cc(Cl)cc2[nH]ncc12
EC50 (dengue virus type 2; Dengue virus, Vero C1008): > 6.25 µM | EC90 (dengue virus type 2; Dengue virus, Vero C1008, Baseline response 0 %, Hill slope 3.411, Maximum measured 174.98 %, Maximum response 100 %, Minimum measured 62.735 %, R squared 0.059): > 6.25 µM | EC50 (Zika virus; Zika virus, Vero C1008): > 50 µM | EC90 (Zika virus; Zika virus, Vero C1008, Baseline response 0 %, Hill slope 0.648, Maximum measured 22.176 %, Maximum response 100 %, Minimum measured 1.861 %, R squared 0.877): > 50 µM

O=C(Nc1ccc2c(c1)CNC2)c1cc(Br)cc2[nH]c(=O)[nH]c12
EC50 (dengue virus type 2; Dengue virus, Vero C1008): > 50 µM | EC90 (dengue virus type 2; Dengue virus, Vero C1008, Maximum measured 135.314 %, Minimum measured 105.633 %): > 50 µM | EC50 (Zika virus; Zika virus, Vero C1008): > 50 µM | EC90 (Zika virus; Zika virus, Vero C1008, Baseline response 0 %, Hill slope 1.27, Maximum measured 26.011 %, Maximum response 100 %, Minimum measured -2.243 %, R squared 0.854): > 50 µM

From ChEMBL document CHEMBL5661943, “ASAP - In vitro antiviral effect” (2024)
